From PubChem BioAssay (NCI)
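A five-concentration, 48-hour dose response in 96-well plates underlies each endpoint, interpolated linearly between surrounding concentrations. Abbreviation: GI50, concentration required for 50% inhibition of growth. Definition used: TGI = concentration required for complete inhibition of growth.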

Assays:
Experiment in all cases: NCI tumour cell line growth inhibition, 48 h
BT-549 breast = test system: BT-549 breast
UACC-62 melanoma = test system: UACC-62 melanoma
HT29 colon = test system: HT29 colon
786-0 renal = test system: 786-0 renal
SF-539 CNS = test system: SF-539 CNS
SK-MEL-5 melanoma = test system: SK-MEL-5 melanoma
NCI-H522 lung = test system: NCI-H522 lung
UO-31 renal = test system: UO-31 renal
EKVX NSCLC = test system: EKVX NSCLC
U251 CNS = test system: U251 CNS
SK-MEL-28 melanoma = test system: SK-MEL-28 melanoma
IGROV1 ovarian = test system: IGROV1 ovarian
TK-10 renal = test system: TK-10 renal
HOP-62 NSCLC = test system: HOP-62 NSCLC
SF-268 CNS = test system: SF-268 CNS
OVCAR-5 ovarian = test system: OVCAR-5 ovarian
M14 melanoma = test system: M14 melanoma
PC-3 prostate = test system: PC-3 prostate
UACC-257 melanoma = test system: UACC-257 melanoma
MCF7 breast = test system: MCF7 breast
COLO 205 colon = test system: COLO 205 colon
HCT-15 colon = test system: HCT-15 colon
OVCAR-4 ovarian = test system: OVCAR-4 ovarian
SK-OV-3 ovarian = test system: SK-OV-3 ovarian
HL-60(TB) leukemia = test system: HL-60(TB) leukemia
NCI/ADR-RES ovarian = test system: NCI/ADR-RES ovarian
HOP-92 NSCLC = test system: HOP-92 NSCLC
SN12C renal = test system: SN12C renal

Question: For COc1ccc(/C(C)=C(\c2ccc(Cl)cc2)c2ccc(OCCN3CCCCC3)cc2)cc1, which GI50 (BT-549 breast) is on record?
Answer: 3.19 µM

Question: And the TGI (BT-549 breast)?
Answer: 7.55 µM

Question: What about the GI50 (UACC-62 melanoma) of the same compound?
Answer: 2.12 µM

Question: What about the TGI (UACC-62 melanoma) of the same compound?
Answer: 6.45 µM

Question: And the GI50 (HT29 colon)?
Answer: 0.984 µM

Question: And the TGI (HT29 colon)?
Answer: 3.87 µM

Question: And the GI50 (786-0 renal)?
Answer: 0.746 µM

Question: What about the TGI (786-0 renal) of the same compound?
Answer: 1.9 µM

Question: What about the GI50 (SF-539 CNS) of the same compound?
Answer: 3.54 µM

Question: What about the TGI (SF-539 CNS) of the same compound?
Answer: 7.68 µM

Question: And the GI50 (SK-MEL-5 melanoma)?
Answer: 1.57 µM

Question: And the TGI (SK-MEL-5 melanoma)?
Answer: 5.44 µM

Question: What about the GI50 (NCI-H522 lung) of the same compound?
Answer: 4.12 µM

Question: What about the TGI (NCI-H522 lung) of the same compound?
Answer: 8.66 µM

Question: And the GI50 (UO-31 renal)?
Answer: 3.46 µM

Question: And the TGI (UO-31 renal)?
Answer: 7.4 µM

Question: And the GI50 (EKVX NSCLC)?
Answer: 2.66 µM

Question: And the TGI (EKVX NSCLC)?
Answer: 8.79 µM

Question: And the GI50 (U251 CNS)?
Answer: 4.13 µM

Question: What about the TGI (U251 CNS) of the same compound?
Answer: 8.77 µM

Question: And the GI50 (SK-MEL-28 melanoma)?
Answer: 3.99 µM

Question: What about the TGI (SK-MEL-28 melanoma) of the same compound?
Answer: 8.4 µM

Question: What about the GI50 (IGROV1 ovarian) of the same compound?
Answer: 4.93 µM

Question: And the TGI (IGROV1 ovarian)?
Answer: 11.2 µM

Question: What about the GI50 (TK-10 renal) of the same compound?
Answer: 5.66 µM

Question: And the TGI (TK-10 renal)?
Answer: 13.8 µM

Question: What about the GI50 (HOP-62 NSCLC) of the same compound?
Answer: 4.83 µM

Question: And the TGI (HOP-62 NSCLC)?
Answer: 9.96 µM

Question: What about the GI50 (SF-268 CNS) of the same compound?
Answer: 7.75 µM

Question: What about the TGI (SF-268 CNS) of the same compound?
Answer: 26.8 µM

Question: What about the GI50 (OVCAR-5 ovarian) of the same compound?
Answer: 4.16 µM

Question: And the TGI (OVCAR-5 ovarian)?
Answer: 9.55 µM

Question: And the GI50 (M14 melanoma)?
Answer: 0.861 µM

Question: And the TGI (M14 melanoma)?
Answer: 2.36 µM

Question: And the GI50 (PC-3 prostate)?
Answer: 1.81 µM

Question: What about the TGI (PC-3 prostate) of the same compound?
Answer: 6.59 µM

Question: What about the GI50 (UACC-257 melanoma) of the same compound?
Answer: 5.73 µM

Question: What about the TGI (UACC-257 melanoma) of the same compound?
Answer: 10.8 µM

Question: And the GI50 (MCF7 breast)?
Answer: 0.604 µM

Question: And the TGI (MCF7 breast)?
Answer: 5.71 µM

Question: What about the GI50 (COLO 205 colon) of the same compound?
Answer: 2.25 µM

Question: What about the TGI (COLO 205 colon) of the same compound?
Answer: 7.05 µM

Question: What about the GI50 (HCT-15 colon) of the same compound?
Answer: 1.16 µM

Question: And the TGI (HCT-15 colon)?
Answer: 4.56 µM

Question: What about the GI50 (OVCAR-4 ovarian) of the same compound?
Answer: 3.76 µM

Question: What about the TGI (OVCAR-4 ovarian) of the same compound?
Answer: 9.51 µM

Question: And the GI50 (SK-OV-3 ovarian)?
Answer: 6.25 µM

Question: And the TGI (SK-OV-3 ovarian)?
Answer: 12.3 µM

Question: What about the GI50 (HL-60(TB) leukemia) of the same compound?
Answer: 3.94 µM

Question: And the TGI (HL-60(TB) leukemia)?
Answer: 12.6 µM

Question: What about the GI50 (NCI/ADR-RES ovarian) of the same compound?
Answer: 4.79 µM

Question: And the TGI (NCI/ADR-RES ovarian)?
Answer: 9.86 µM

Question: What about the GI50 (HOP-92 NSCLC) of the same compound?
Answer: 3.45 µM

Question: And the TGI (HOP-92 NSCLC)?
Answer: 7.55 µM

Question: What about the GI50 (SN12C renal) of the same compound?
Answer: 4.68 µM

Question: And the TGI (SN12C renal)?
Answer: 9.53 µM
